Test results published in patent US20240299382A1, “COMPOUNDS AND METHODS FOR DEGRADING RCOR1, LSD1, HDAC1 AND HDAC2 IN THE COREST” (University of Florida Research Foundation, Inc., priority 2021, published 2024).
Entries after “also recorded” stand apart in the source; their conditions may differ. Read-outs that look alike come from different tables or passages of the source. Values belong to the compound of their own block, whether it stands above or below them.

Tests used:
[1] = biological target: T1, LSD1 (Homo sapiens, UniProt O60341); test: Western blotting of protein levels in MCF7 cells; type: cell-based; conditions: for LSD1 protein level / degradation of LSD1: MCF7 cells; for LSD1 protein level: indicated concentrations, 14 hours; for degradation of LSD1: 10 μM, 6 hours, Western blotting
T1 construct: Cells were then lysed and subjected to Western blotting with antibodies against the indicated proteins; endogenous in cells; host or cells: MCF7
Description: (§1) […] Cells were pretreated with the proteasomal inhibitor MG132 (MG, 3 μM) or the neddylation inhibitor MLN4924 (MLN, 1 μM) for 2 hours. Cells were then lysed and subjected to Western blotting with antibodies against the indicated proteins. The levels of RCOR1 were normalized against that of tubulin and shown as % of DMSO control.
(§2) Cells were pretreated with the proteasomal inhibitor MG132 (MG, 3 μM) or the neddylation inhibitor MLN4924 (MLN, 1 μM) for 2 hours. Cells were then lysed and subjected to Western blotting with antibodies against the indicated proteins. The levels of RCOR1 and LSD1 were normalized against that of tubulin and shown as % of DMSO control.

[2] = biological target: T2, RCOR1 (Homo sapiens, UniProt Q9UKL0); test: Western blotting of protein levels in MCF7 cells; type: cell-based; conditions: for RCOR1 protein level: indicated concentrations; for degradation of RCOR1: 10 μM, 6 hours, Western blotting
T2 construct: Cells were then lysed and subjected to Western blotting with antibodies against the indicated proteins; endogenous in cells; host or cells: MCF7
T2 sequence (Q9UKL0 whole entry): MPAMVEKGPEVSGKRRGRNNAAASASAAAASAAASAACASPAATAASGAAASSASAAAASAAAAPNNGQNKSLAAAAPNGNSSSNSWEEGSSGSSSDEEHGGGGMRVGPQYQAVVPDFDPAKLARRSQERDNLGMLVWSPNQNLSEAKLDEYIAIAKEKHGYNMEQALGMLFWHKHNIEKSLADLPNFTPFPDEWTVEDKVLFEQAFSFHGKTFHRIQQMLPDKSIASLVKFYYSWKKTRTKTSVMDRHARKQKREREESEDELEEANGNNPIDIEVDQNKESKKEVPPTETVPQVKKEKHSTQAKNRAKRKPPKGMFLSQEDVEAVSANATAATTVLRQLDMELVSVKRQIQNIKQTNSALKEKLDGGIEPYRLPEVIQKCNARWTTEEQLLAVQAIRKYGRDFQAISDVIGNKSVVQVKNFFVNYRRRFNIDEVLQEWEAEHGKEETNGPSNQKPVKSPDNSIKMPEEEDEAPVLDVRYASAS
Description: as §1, §2

[3] = tested on: HDACs; test: HDAC inhibition (HDACi activity); type: biochemical
[4] = tested on: MDA-MB-231 and T47D cells; test: Viability assay using CellTiter-Glo, four days; type: cell-based; conditions: SR-4370 compared to UF010
Description: (§3) MDA-MB-231 and T47D cells were treated with the indicated compounds for four days (FIG. 5A). Viability assays were done using CellTiter-Glo. Shown are normalized values vs. vehicle±SEM (n=3). IC50 values are calculated using Prism 6. Note that SR-3460 has no HDACi activity. Cells were seeded and then continuously treated with SR-4370 or UF010 at the indicated concentrations for 15 days. Colonies were fixed and stained (FIG. 5B).

[5] = biological target: T3, HDAC1 (Homo sapiens, UniProt Q13547); test: Western blotting of protein levels in MCF7 cells; type: cell-based; conditions: for degradation of HDAC1: 10 μM, 6 hours, Western blotting
T3 construct: endogenous in cells; host or cells: MCF7
T3 sequence (Q13547 whole entry): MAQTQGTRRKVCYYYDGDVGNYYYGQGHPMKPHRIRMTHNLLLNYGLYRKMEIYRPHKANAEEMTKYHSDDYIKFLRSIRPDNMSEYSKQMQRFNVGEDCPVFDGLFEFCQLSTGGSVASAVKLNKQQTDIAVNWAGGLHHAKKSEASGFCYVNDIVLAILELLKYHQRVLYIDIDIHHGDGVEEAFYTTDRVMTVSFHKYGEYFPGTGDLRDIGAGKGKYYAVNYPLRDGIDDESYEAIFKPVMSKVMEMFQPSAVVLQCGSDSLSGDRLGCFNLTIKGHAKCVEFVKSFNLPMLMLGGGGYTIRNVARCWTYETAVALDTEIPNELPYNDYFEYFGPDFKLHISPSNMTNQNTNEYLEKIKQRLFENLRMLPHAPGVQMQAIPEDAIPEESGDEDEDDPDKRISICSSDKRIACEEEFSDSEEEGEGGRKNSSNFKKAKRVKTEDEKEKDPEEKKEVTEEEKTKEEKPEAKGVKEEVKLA
Description: (§4) MCF7 cells were exposed to DMSO or the indicated compounds (10 μM) for 6 hours. Cells were pretreated with the proteasomal inhibitor MG132 (MG, 3 μM) or the neddylation inhibitor MLN4924 (MLN, 1 μM) for 2 hours. Cells were then lysed and subjected to Western blotting with antibodies against the indicated proteins. The levels of RCOR1 were normalized against that of tubulin and shown as % of DMSO control.
as §4, with “DMSO, SR-4370 and other compounds at” for “DMSO or”, “concentrations” for “compounds (10 μM)”, “14” for “6”, “RCOR1 and LSD1” for “RCOR1”

[6] = biological target: T4, HDAC2 (Homo sapiens, UniProt Q92769); test: Western blotting of protein levels in MCF7 cells; type: cell-based; conditions: for degradation of HDAC2: 10 μM, 6 hours, Western blotting
T4 construct: endogenous in cells; host or cells: MCF7
T4 sequence (Q92769 whole entry): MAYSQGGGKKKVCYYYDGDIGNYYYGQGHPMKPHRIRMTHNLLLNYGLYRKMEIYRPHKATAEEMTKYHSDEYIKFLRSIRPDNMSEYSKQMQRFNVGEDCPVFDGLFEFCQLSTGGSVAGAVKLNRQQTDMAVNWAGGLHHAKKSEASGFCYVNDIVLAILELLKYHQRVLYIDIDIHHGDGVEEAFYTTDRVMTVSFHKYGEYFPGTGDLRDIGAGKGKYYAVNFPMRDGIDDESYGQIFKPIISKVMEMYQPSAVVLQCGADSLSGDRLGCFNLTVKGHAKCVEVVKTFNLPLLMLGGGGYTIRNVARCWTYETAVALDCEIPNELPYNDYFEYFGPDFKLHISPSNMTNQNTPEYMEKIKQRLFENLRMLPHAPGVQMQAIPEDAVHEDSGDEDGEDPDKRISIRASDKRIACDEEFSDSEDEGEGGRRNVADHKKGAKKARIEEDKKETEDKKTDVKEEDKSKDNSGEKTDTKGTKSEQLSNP
Description: as §4
as §4, with “DMSO, SR-4370 and other compounds at” for “DMSO or”, “concentrations” for “compounds (10 μM)”, “14” for “6”, “RCOR1 and LSD1” for “RCOR1”

[7] = biological target: T5, HDAC3 (Homo sapiens, UniProt O15379); test: Western blotting of protein levels in MCF7 cells; type: cell-based; conditions: 14 hours
T5 construct: endogenous in cells; host or cells: MCF7
T5 sequence (O15379 whole entry): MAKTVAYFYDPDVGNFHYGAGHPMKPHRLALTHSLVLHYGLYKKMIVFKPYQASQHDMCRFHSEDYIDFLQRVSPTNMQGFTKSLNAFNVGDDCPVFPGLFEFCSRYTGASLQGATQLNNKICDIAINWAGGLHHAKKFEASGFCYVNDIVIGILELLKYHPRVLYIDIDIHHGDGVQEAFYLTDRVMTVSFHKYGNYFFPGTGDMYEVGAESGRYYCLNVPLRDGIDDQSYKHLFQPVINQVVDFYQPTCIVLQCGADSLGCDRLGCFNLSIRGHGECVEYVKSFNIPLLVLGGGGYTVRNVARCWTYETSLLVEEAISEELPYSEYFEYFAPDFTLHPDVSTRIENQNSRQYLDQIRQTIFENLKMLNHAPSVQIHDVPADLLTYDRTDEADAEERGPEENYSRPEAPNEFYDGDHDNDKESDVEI
Description: as §4, with “DMSO, SR-4370 and other compounds at” for “DMSO or”, “concentrations” for “compounds (10 μM)”, “14” for “6”, “RCOR1 and LSD1” for “RCOR1”

[8] = biological target: T6, HDAC8 (Homo sapiens, UniProt Q9BY41); test: Western blotting of protein levels in MCF7 cells; type: cell-based; conditions: 14 hours
T6 construct: endogenous in cells; host or cells: MCF7
T6 sequence (Q9BY41 1-377): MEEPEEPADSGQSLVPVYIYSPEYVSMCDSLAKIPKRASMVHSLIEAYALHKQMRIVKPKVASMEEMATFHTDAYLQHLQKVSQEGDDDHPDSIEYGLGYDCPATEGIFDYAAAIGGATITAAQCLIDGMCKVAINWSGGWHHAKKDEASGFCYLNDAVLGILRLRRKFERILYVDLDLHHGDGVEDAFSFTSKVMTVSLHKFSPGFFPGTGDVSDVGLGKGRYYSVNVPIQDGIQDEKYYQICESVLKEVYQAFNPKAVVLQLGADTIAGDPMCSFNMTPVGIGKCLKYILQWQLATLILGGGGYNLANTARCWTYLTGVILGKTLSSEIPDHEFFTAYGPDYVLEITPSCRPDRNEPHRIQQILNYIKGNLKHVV
Description: as §4, with “DMSO, SR-4370 and other compounds at” for “DMSO or”, “concentrations” for “compounds (10 μM)”, “14” for “6”, “RCOR1 and LSD1” for “RCOR1”

[9] = tested on: LSD2; test: Western blotting of protein levels in MCF7 cells; type: cell-based; conditions: 14 hours
Description: as §4, with “DMSO, SR-4370 and other compounds at” for “DMSO or”, “concentrations” for “compounds (10 μM)”, “14” for “6”, “RCOR1 and LSD1” for “RCOR1”

[10] = tested on: MTA2; test: Western blotting of protein levels in MCF7 cells; type: cell-based; conditions: 14 hours
Description: as §4, with “DMSO, SR-4370 and other compounds at” for “DMSO or”, “concentrations” for “compounds (10 μM)”, “14” for “6”, “RCOR1 and LSD1” for “RCOR1”

[11] = tested on: RBBP4; test: Western blotting of protein levels in MCF7 cells; type: cell-based; conditions: 14 hours
Description: as §4, with “DMSO, SR-4370 and other compounds at” for “DMSO or”, “concentrations” for “compounds (10 μM)”, “14” for “6”, “RCOR1 and LSD1” for “RCOR1”

[12] = tested on: RCOR2; test: Western blotting of protein levels in MCF7 cells; type: cell-based; conditions: 14 hours
Description: as §4, with “DMSO, SR-4370 and other compounds at” for “DMSO or”, “concentrations” for “compounds (10 μM)”, “14” for “6”, “RCOR1 and LSD1” for “RCOR1”

[13] = tested on: RCOR3; test: Western blotting of protein levels in MCF7 cells; type: cell-based; conditions: 14 hours
Description: as §4, with “DMSO, SR-4370 and other compounds at” for “DMSO or”, “concentrations” for “compounds (10 μM)”, “14” for “6”, “RCOR1 and LSD1” for “RCOR1”

[14] = tested on: BC cell lines; test: Colony formation, continuous treatment for 15 days; type: cell-based; conditions: continuous treatment 15 days, colonies; compared to UF010
Description: as §3

[15] = tested on: MDA-MB-231 xenograft tumors; orthotopic EMT6 and 4T1 mouse breast tumors; test: In vivo efficacy in breast tumor models; conditions: mice bearing MDA-MB-231 xenograft, EMT6 or 4T1 tumors
Description: Female athymic mice bearing the MDA-MB-231 xenograft tumors were dosed with vehicle or SR-4370 (FIG. 3A). Tumor volumes and final tumor weights are plotted (average±SD). *: p<0.05, **: p<0.01 (FIGS. 3B and 3C). Female BALB/c mice bearing the orthotopic EMT6 (FIG. 3B) and 4T1 (FIG. 3C) mouse breast tumors were dosed with SR-4370 as in (FIG. 3A). At the endpoint, tumors were removed from euthanized mice and weighed. The tumor weight plots are shown (average±SD). The p values were calculated based on t test.

[16] = Tolerability and body weights of tumor-bearing mice dosed with SR-4370
Description: Female BALB/c mice bearing the EMT6 tumors were dosed with vehicle or SR-4370 (50 mg/kg) via intraperitoneal injection.
(§5) In vivo tolerability of UF010, the first identified compound of the benzoylhydrazide HDACi class, was evaluated in mice. […] We conducted pilot experiments to evaluate PK parameters of UF010. As with the MTD experiment, mice were dosed orally at 80 mg/kg. Plasma samples were collected at various time points and the amount of UF010 was determined.

[17] = Blood chemistry tests in tumor-bearing athymic mice
[18] = In vivo tolerability / MTD of UF010, oral dosing; conditions: mice, oral dosing up to 80 mg/kg
Description: as §5

[19] = PK parameters after oral dosing in mice; conditions: 80 mg/kg orally
Description: as §5

[20] = mice, 50 mg/kg orally; cited from earlier work
[21] = data from ref 80; cited from earlier work
[22] = MCF7 cells pretreated with MLN4924 (1 μM) or MG132 (3 μM) for 2 hours
[23] = indicated concentrations, 14 hours
[24] = tumor-bearing athymic mice, average ± SD, n = 6
[25] = tumor-bearing mice at the endpoint

- LSD1 protein level [1]: moderately increased
- RCOR1 protein level ([2]; MCF7 cells, 14 hours): notably increased
Compound: O=C(/C=C/c1cccc(S(=O)(=O)Nc2ccccc2)c1)NO [belinostat, reference compound]

Compound: CCCCNNC(=O)c1ccccc1-c1ccccc1 [SR-3460]
- HDACi activity [3]: does not inhibit HDACs
- cytotoxic effects / BC cell growth, short-term treatment [4]: did not inhibit BC cell growth

Compound: CCCCNNC(=O)c1ccc(-c2cccc(F)c2F)cc1 [SR-4370]
- downregulation of LSD1 under neddylation or proteasome inhibition [1, 22]: completely reversed
- degradation of LSD1 [1]: can degrade
- LSD1 protein level [1]: potent and dose-dependent degradation
- downregulation of RCOR1 under neddylation or proteasome inhibition [2, 22]: completely reversed
- degradation of RCOR1 ([2]; MCF7 cells): can degrade
- DC50 ([2]; MCF7 cells, 14 hours, read-out: DC50 (concentration at which 50% of the target protein is degraded) for RCOR1): < 0.1 µM
- RCOR1 protein level ([2]; MCF7 cells, 14 hours): potent and dose-dependent degradation
- degradation of HDAC1 [5]: can degrade
- HDAC1 protein level [5, 23]: potent and dose-dependent degradation; also recorded: only moderately reduced at a higher concentration
- degradation of HDAC2 [6]: can degrade
- HDAC2 protein level [6, 23]: potent and dose-dependent degradation; also recorded: only moderately reduced at a higher concentration
- HDAC3 protein level [7]: did not affect
- HDAC8 protein level [8]: did not affect
- LSD2 protein level [9]: largely unaffected
- MTA2 protein level [10]: only moderately reduced at a higher concentration
- RBBP4 protein level [11]: largely unaffected
- RCOR2 protein level [12]: largely without affecting
- RCOR3 protein level [13]: largely without affecting
- cytotoxic effects / BC cell growth, short-term treatment [4]: more potent cytotoxic effects
- cytotoxic effects, long-term treatment [14]: more potent cytotoxic effects
- anticancer effects in vivo (tumor volumes, tumor weights) [15]: potent anticancer effects
- tolerability ([16]; SR-4370 up to 50 mg/kg, mice, in vivo efficacy study): completely tolerated
- body weights during the treatment period ([16]; tumor-bearing mice, BALB/c mice with EMT6 tumors, 50 mg/kg intraperitoneal, 50 mg/kg): not affected; also recorded: safe as judged by body weights
- ALP [17, 24]: 49.5 (±8.78) U/L
- ALT [17, 24]: 71.60 (±14.06) U/L
- BUN [17, 24]: 22.0 (±3.16) mg/dL
- Calcium [17, 24]: 8.45 (±0.85) mg/dL
- Chloride [17, 24]: 110.0 (±2.17) mmol/L
- Cholesterol [17, 24]: 113.0 (±15.92) mg/dL
- Creatinine [17, 24]: 0.1 (±0.044) mg/dL
- Glucose [17, 24]: 221.17 (±60.6) mg/dL
- Phosphorus [17, 24]: 9.73 (±2.69) mg/dL
- Potassium [17, 24]: 8.75 (±1.82) mmol/L
- Sodium [17, 24]: 147.33 (±1.51) mmol/L
- Total bilirubin [17, 24]: 0.25 (±0.054) mg/dL
- Total protein [17, 24]: 4.95 (±0.217) g/dL
- liver or kidney toxicities [17, 25]: no signs of liver or kidney toxicities
- serum concentrations of various analytes versus reference ranges [17, 25]: within reference ranges

Compound: CCCCNNC(=O)c1ccc(Br)cc1 [UF010]
- degradation of LSD1 [1]: completely inactive
- degradation of RCOR1 ([2]; MCF7 cells): completely inactive
- degradation of HDAC1 [5]: completely inactive
- degradation of HDAC2 [6]: completely inactive
- HDACi activity [3]: potent HDACi
- in vivo tolerability [18]: completely tolerated without any signs of toxicity or loss of body weight
- oral bioavailability [19]: bioavailable orally
- AUC ([19]; plasma): 6.07 µM·h
- Cmax ([19]; plasma): 5.95 µM
- T1/2 ([19]; plasma): 1.24 h
- Tmax ([19]; plasma): 0.25 h

Compound: CCCCNNC(=O)c1ccc(-c2ccccc2)cc1 [SR-3558]
- degradation of LSD1 [1]: can degrade
- degradation of RCOR1 ([2]; MCF7 cells): can degrade
- degradation of HDAC1 [5]: can degrade
- degradation of HDAC2 [6]: can degrade

- LSD1 protein level [1]: slightly reduced
- RCOR1 protein level ([2]; MCF7 cells, 14 hours): notably increased
Compound: O=C(CCCCCCC(=O)Nc1ccccc1)NO [vorinostat, reference compound]

Compound: Cc1ccc(NC(=O)CCCCCC(=O)Nc2ccccc2N)cc1 [4b]
- AUC [20]: 1.08 µM·h
- Cmax [20]: 1.13 µM
- T1/2 [20]: 2.76 h
- Tmax [20]: 0.25 h

Compound: Nc1ccccc1NC(=O)c1ccc(CNC(=O)OCc2cccnc2)cc1 [entinostat, reference compound]
- LSD1 protein level [1]: slightly reduced
- RCOR1 protein level ([2]; MCF7 cells, 14 hours): notably increased
- T1/2 [21]: ~1 h

Compound: CCCCNNC(=O)c1ccc(-c2cc(C)cc(F)c2)cc1 [SR-4372]
- degradation of LSD1 [1]: can degrade
- degradation of RCOR1 ([2]; MCF7 cells): can degrade
- degradation of HDAC1 [5]: can degrade
- degradation of HDAC2 [6]: can degrade

Compound: CCCCNNC(=O)c1ccc(-c2cncnc2)cc1 [SR-4369]
- degradation of LSD1 [1]: can degrade
- degradation of RCOR1 ([2]; MCF7 cells): can degrade
- degradation of HDAC1 [5]: can degrade
- degradation of HDAC2 [6]: can degrade
